Laboratory results: patent publication US10555961B2 (INDIANA UNIVERSITY RESEARCH AND TECHNOLOGY CORPORATION, priority 2015, dated 2020)

Legend:
Format in all cases: cell-based
Bacillus subtilis = assay: Bacterial assay, kill zones and growth inhibition zones; settings: FIG. 2
Experimental: (§1) Bacterial assays were performed using native gentamicin and the C-1, C-1a, C-2, and C-2a congeners of gentamicin.

Klebsiella pneumonia = assay: as above; settings: FIG. 2
Experimental: as §1

[1] = test system: variant of Klebsiella pneumonia that exhibits multi-drug resistance; settings: multi-drug resistant Klebsiella pneumonia, FIG. 2
Experimental: as §1

UGAC stop codon = assay: Stop codon readthrough (FIG. 7); settings: 200 μg mL^−1 for 24 hours, relative to controls
Experimental: Native gentamicin and various congeners prepared as in Example 1 were tested to determine their effect on stop codon readthrough.
In order to determine the optimal concentrations of the aminoglycosides (tobramycin, amikacin, and gentamicin) to use in the mammalian translation system, increasing amounts of each aminoglycoside were added to a rabbit reticulocyte translation system while expressing the QX(N) (UGAC) construct. The effect of aminoglycosides on total protein synthesis was monitored by comparing the total amount of proteins synthesized in the presence and absence of various aminoglycosides. A range of aminoglycoside concentrations was then determined that allowed a maximal amount of termination suppression without inhibiting total protein synthesis more than two- to threefold. In vitro translation reactions were carried out using the TNT coupled transcription/translation system (Promega, Madison, Wis.). […] The gel was dried and subjected to Phosphorlmager analysis in order to quantitate the amount of truncated and full-length protein species. The percentage of readthrough was then calculated as the amount of full-length protein/(truncated+full-length species)×100%.

Row | Substance | anti-bacterial activity (kill zones and growth inhibition zones) (Bacillus subtilis) | anti-bacterial activity (kill zones and growth inhibition zones) (Klebsiella pneumonia) | anti-bacterial activity (kill zones and growth inhibition zones) [1] | readthrough of the stop codon UGAC (UGAC stop codon)
1 | C-2 gentamicin | demonstrated anti-bacterial activity | demonstrated anti-bacterial activity | demonstrated anti-bacterial activity | greater readthrough relative to controls
2 | C-2a gentamicin | demonstrated anti-bacterial activity | demonstrated anti-bacterial activity | demonstrated anti-bacterial activity | 
3 | C-1a gentamicin | demonstrated anti-bacterial activity | demonstrated anti-bacterial activity | demonstrated anti-bacterial activity | 
4 | C-1 gentamicin | demonstrated anti-bacterial activity | demonstrated anti-bacterial activity | demonstrated anti-bacterial activity | greater readthrough relative to controls
